Results reported in patent US12691086B2, “Methods of treating systemic sclerosis and idiopathic pulmonary fibrosis” (HORIZON THERAPEUTICS IRELAND DAC, priority 2022, dated 2026).

Experiments:
[1] = molecular target: T1, organic anion transporter 1 (OAT1) (Homo sapiens, UniProt Q4U2R8); assay: In vitro inhibition of organic anion transporter 1; format: in vitro ADME
T1 sequence (Q4U2R8 1-563): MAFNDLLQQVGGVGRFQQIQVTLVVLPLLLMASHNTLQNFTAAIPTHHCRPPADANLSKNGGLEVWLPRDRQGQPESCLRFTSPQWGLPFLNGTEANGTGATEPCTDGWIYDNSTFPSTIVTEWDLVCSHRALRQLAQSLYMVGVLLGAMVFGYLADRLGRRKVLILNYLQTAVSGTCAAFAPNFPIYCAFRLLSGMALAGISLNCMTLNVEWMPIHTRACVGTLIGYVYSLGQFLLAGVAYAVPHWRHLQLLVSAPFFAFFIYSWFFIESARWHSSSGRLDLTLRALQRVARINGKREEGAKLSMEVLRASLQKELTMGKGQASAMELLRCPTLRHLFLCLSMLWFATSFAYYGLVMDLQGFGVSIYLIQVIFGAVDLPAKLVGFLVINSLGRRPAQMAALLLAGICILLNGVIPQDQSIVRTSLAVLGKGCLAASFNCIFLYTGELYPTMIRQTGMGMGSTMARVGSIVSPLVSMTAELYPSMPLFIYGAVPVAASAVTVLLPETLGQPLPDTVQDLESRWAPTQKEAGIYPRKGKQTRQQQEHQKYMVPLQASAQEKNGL

skin fibrosis = details: mouse, in vivo; cited from earlier work
[2] = molecular target: T2, organic anion transporter 3 (OAT3) (Homo sapiens, UniProt Q8TCC7); assay: In vitro inhibition of organic anion transporter 3; format: in vitro ADME
T2 sequence (Q8TCC7 1-542): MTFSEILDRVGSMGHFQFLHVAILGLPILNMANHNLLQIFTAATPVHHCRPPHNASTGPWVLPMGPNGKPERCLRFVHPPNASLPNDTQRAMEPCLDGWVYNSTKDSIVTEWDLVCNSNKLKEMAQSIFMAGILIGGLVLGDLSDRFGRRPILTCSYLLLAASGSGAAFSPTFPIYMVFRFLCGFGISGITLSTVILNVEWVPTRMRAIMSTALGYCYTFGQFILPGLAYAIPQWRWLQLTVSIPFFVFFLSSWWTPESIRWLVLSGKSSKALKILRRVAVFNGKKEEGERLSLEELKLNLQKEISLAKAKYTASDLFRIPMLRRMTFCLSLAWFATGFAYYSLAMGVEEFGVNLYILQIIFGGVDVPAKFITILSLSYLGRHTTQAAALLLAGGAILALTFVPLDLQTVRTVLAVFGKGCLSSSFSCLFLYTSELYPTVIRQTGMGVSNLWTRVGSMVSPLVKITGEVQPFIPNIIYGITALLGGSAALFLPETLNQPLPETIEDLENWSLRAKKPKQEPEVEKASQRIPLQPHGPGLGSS

inhibition of OAT1 [1]: inhibitor
inhibition of OAT3 [2]: inhibitor
Structure (SMILES): COc1ccc(C(=O)NC2(C(=O)O)Cc3ccccc3C2)cc1OCCc1cccc(C)c1 [Compound I, 2-(4-methoxy-3-(3-methylphenethoxy)benzamido)-2,3-dihydro-1H-indene-2-carboxylic acid]
collagen content (skin fibrosis): reduced
dermal thickening (skin fibrosis): reversed
myofibroblast differentiation (skin fibrosis): significantly inhibited
